Measured values from patent US20220304978A1, “INHIBITING MESANGIAL CELL ACTIVATION” (Chinook Therapeutics, Inc., priority 2019, published 2022).

Test system: kidney tissue of g-ddY mice
Assay: RNA-seq differential gene expression in kidney tissue of g-ddY mice
Format: in vivo, mouse
Description: RNA isolation and sequencing libraries were generated using standard protocols. Sequencing was performed using an Illumina NextSeq500 using manufacturer's instructions with a read length of 75 bp and a read depth of 30 million. Raw data was assembled to FASTQ files. Following QC analysis, high quality sequencing reads (e.g., reads with a Phred quality score >36) were aligned to the mouse reference genome (GRCm38-mm10) using the default parameters of the align algorithm and transcript count tables of each library was generated using the default parameters of the featureCounts algorithm of the RSubread package (Liao Y, Smyth GK, Shi W, 2019). High quality sequencing reads mapped to 27,129 genes. Following additional QC of low count filtering (i.e. transcripts <10 counts across all samples), 16,207 genes were identified and used for further analysis. The remaining sequencing read counts of the included 16,207 genes were normalized to library size, log-transformed, and were quantified as counts per million (CPM). Select RNA-seq counts were validated using qPCR. Sequencing read counts (CPM) were used for identification of differential gene expression between specified populations using the quasi-likelihood methodology of the edgeR package. […] MA plots were generated using edgeR. Heatmaps and other plots were generated using the gplots and ggplot2 package.

[1] = 10 mg/kg/day vs control, IL6 signaling
[2] = 10 mg/kg/day vs control, NF-kB signaling
[3] = 10 mg/kg/day vs control, PDGF signaling
[4] = 10 mg/kg/day vs control, cell proliferation signaling
[5] = 10 mg/kg/day vs control, inflammatory response signaling
[6] = 10 mg/kg/day vs control, mesangial cell signature
[7] = 20 mg/kg/day vs control, IL6 signaling
[8] = 20 mg/kg/day vs control, NF-kB signaling
[9] = 20 mg/kg/day vs control, PDGF signaling
[10] = 20 mg/kg/day vs control, cell proliferation signaling

Q: Which results are given for `CCCCN(CCCC)C(=O)CN1C[C@H](c2ccc3c(c2)OCO3)[C@@H](C(=O)O)[C@@H]1c1ccc(OC)cc1` [atrasentan, (2R,3R,4S)-4-(1,3-benzodioxol-5-yl)-1-[2-(dibutylamino)-2-oxoethyl]-2-(4-methoxyphenyl)pyrrolidine-3-carboxylic acid]?
A: Cntfr logFC [1]: −0.8669; Csf1 logFC [1]: −0.8332; Il1b logFC [1]: −1.684; Il1r1 logFC [1]: −0.2988; Il2ra logFC [1]: −0.8599; Map3k8 logFC [1]: −0.3558; Ackr3 logFC [2]: 0.2851; Atf3 logFC [2]: −1.514; Btg1 logFC [2]: −0.3745; Btg2 logFC [2]: −0.424; Ccl20 logFC [2]: −1.273; Ccnd1 logFC [2]: 0.453; Cdkn1a logFC [2]: 0.5583; Csf1 logFC [2]: −0.8332; Cxcl2 logFC [2]: −1.19; Dnajb4 logFC [2]: −0.3683; Edn1 logFC [2]: −1.006; Efna1 logFC [2]: 0.6938; Ehd1 logFC [2]: 0.2563; F3 logFC [2]: −0.4963; Fosl2 logFC [2]: −0.8662; Id2 logFC [2]: 0.1663; Ifit2 logFC [2]: −0.471; Il1b logFC [2]: −1.684; Jag1 logFC [2]: −0.4199; Klf2 logFC [2]: −0.4894; Klf4 logFC [2]: −0.5493; Map3k8 logFC [2]: −0.3558; Nfat5 logFC [2]: −0.3118; Nfkb1 logFC [2]: −0.3424; Nfkbia logFC [2]: −0.5525; Nr4a2 logFC [2]: −1.3802; Nr4a3 logFC [2]: −1.143; Per1 logFC [2]: −0.4162; Pfkfb3 logFC [2]: −1.166; Pnrcl logFC [2]: 0.2635; Rel logFC [2]: −0.7218; Rhob logFC [2]: −0.533; Serpine1 logFC [2]: −0.7169; Snn logFC [2]: 0.3517; Spsb1 logFC [2]: −0.6157; Tnfaip8 logFC [2]: 0.273; Traf1 logFC [2]: −0.5182; Trib1 logFC [2]: −0.6481; Zbtb10 logFC [2]: −0.2335; Hras logFC [3]: 0.1887; Map3k1 logFC [3]: −0.3825; Nfkb1 logFC [3]: −0.3424; Nfkbia logFC [3]: −0.5525; Pdgfb logFC [3]: −0.3414; Pdgfra logFC [3]: −0.51; Pik3cg logFC [3]: −0.5882; Pik3r1 logFC [3]: −0.4253; Pla2g4a logFC [3]: −0.6999; Tiam1 logFC [3]: −0.7456; Arid4a logFC [4]: −0.2777; Atrx logFC [4]: −0.2463; Bcar1 logFC [4]: 0.3379; Ccdc88a logFC [4]: −0.5602; Ccnd1 logFC [4]: 0.453; Cep192 logFC [4]: −0.4211; Cntrl logFC [4]: −0.289; Dmd logFC [4]: −0.3335; Epb41l2 logFC [4]: −0.4376; Fgd6 logFC [4]: −0.2369; Flna logFC [4]: −0.4162; Itsn1 logFC [4]: −0.2276; Kmt5a logFC [4]: 0.2601; Meis1 logFC [4]: −0.2507; Myh9 logFC [4]: −0.2093; Myh10 logFC [4]: −0.3068; Myo1e logFC [4]: −0.2349; Nin logFC [4]: −0.3393; Ophn1 logFC [4]: −0.4999; Rapgef5 logFC [4]: −0.2732; Rhot2 logFC [4]: 0.4727; Slc7a1 logFC [4]: −0.396; Slc12a2 logFC [4]: −0.2507; Slc38a1 logFC [4]: −0.4971; Smc3 logFC [4]: −0.2304; Sorbs2 logFC [4]: −0.3958; Tiam1 logFC [4]: −0.7456; Tuba4a logFC [4]: 0.2738; Vcl logFC [4]: −0.2001; Ythdc1 logFC [4]: −0.1936; Btg2 logFC [5]: −0.424; Ccl20 logFC [5]: −1.273; Cdkn1a logFC [5]: 0.5583; Chst2 logFC [5]: −0.5212; Csf1 logFC [5]: −0.8332; Edn1 logFC [5]: −1.006; Eif2ak2 logFC [5]: −0.272; F3 logFC [5]: −0.4963; Gabbr1 logFC [5]: −0.02473; Hpn logFC [5]: 0.4007; Il1b logFC [5]: −1.684; Il1r1 logFC [5]: −0.2988; Ly6e logFC [5]: 0.1666; Nfkb1 logFC [5]: −0.3424; Nfkbia logFC [5]: −0.5525; Rnf144b logFC [5]: −0.7108; Ros1 logFC [5]: −2.078; Serpine1 logFC [5]: −0.7169; Slc4a4 logFC [5]: 0.5123; Slc7a1 logFC [5]: −0.396; Slc7a2 logFC [5]: −0.8315; Slc11a2 logFC [5]: 0.3192; Ahnak logFC [6]: −0.5756; Akap12 logFC [6]: −0.2687; Akt3 logFC [6]: −0.3863; Aldob logFC [6]: 0.4194; Ankrd12 logFC [6]: −0.2824; C7 logFC [6]: −0.7767; Cald1 logFC [6]: −0.3719; Cblb logFC [6]: −0.082; Ebf1 logFC [6]: −0.3301; Epb41l2 logFC [6]: −0.4375; Ets1 logFC [6]: −0.2198; Fchsd2 logFC [6]: −0.2564; Frmd4a logFC [6]: −0.2838; Gata3 logFC [6]: −0.4822; Gpx3 logFC [6]: 0.6802; Igfbp7 logFC [6]: 0.2052; Lama2 logFC [6]: −0.2955; Maml2 logFC [6]: −0.2318; Meis1 logFC [6]: −0.2507; Myh9 logFC [6]: −0.2094; Myo1e logFC [6]: −0.2349; Nbea logFC [6]: −0.2819; Nfkbia logFC [6]: −0.5525; Piezo2 logFC [6]: −0.4078; Postn logFC [6]: −1.385; Pparg logFC [6]: −0.6129; Ppp1r12a logFC [6]: −0.1995; Prkg1 logFC [6]: −0.2187; Psd3 logFC [6]: −0.3544; Ptprm logFC [6]: −0.2614; Rapgef5 logFC [6]: −0.2732; Raph1 logFC [6]: −0.2965; Rbms3 logFC [6]: −0.5749; Robo1 logFC [6]: −0.4803; Stard13 logFC [6]: −0.7224; Tacc1 logFC [6]: −0.2449; Tcf4 logFC [6]: −0.2176; Tjp1 logFC [6]: −0.2489; Tns3 logFC [6]: −0.2638; Unc5c logFC [6]: 0.5618; Utrn logFC [6]: −0.49; Cntfr logFC [7]: −0.8574; Csf1 logFC [7]: −1.089; Il1r1 logFC [7]: −0.8263; Il2ra logFC [7]: −0.959; Map3k8 logFC [7]: −0.8222; Ackr3 logFC [8]: 0.4917; Atf3 logFC [8]: −2.107; Btg1 logFC [8]: −0.5187; Btg2 logFC [8]: −0.6974; Ccn1 logFC [8]: −1.087; Ccnd1 logFC [8]: 0.644; Cdkn1a logFC [8]: 0.2546; Csf1 logFC [8]: −1.089; Cxcl2 logFC [8]: −2.5772; Dnajb4 logFC [8]: −0.3548; Edn1 logFC [8]: −1.328; Efna1 logFC [8]: 0.286; Ehd1 logFC [8]: 0.2715; F3 logFC [8]: −0.5235; Fosl2 logFC [8]: −1.122; Gem logFC [8]: −1.237; Id2 logFC [8]: 0.2228; Ifit2 logFC [8]: −0.6323; Jag1 logFC [8]: −0.3939; Klf2 logFC [8]: −0.4816; Klf4 logFC [8]: −0.904; Map3k8 logFC [8]: −0.8222; Nfat5 logFC [8]: −0.323; Nfkb1 logFC [8]: −0.616; Nfkbia logFC [8]: −0.7041; Nr4a1 logFC [8]: −1.621; Nr4a2 logFC [8]: −1.111; Nr4a3 logFC [8]: −1.113; Per1 logFC [8]: −0.1216; Pfkfb3 logFC [8]: −1.125; Pnrcl logFC [8]: 0.04156; Rel logFC [8]: −1.0782; Rhob logFC [8]: −0.5419; Serpine1 logFC [8]: −1.501; Snn logFC [8]: 0.4753; Spsb1 logFC [8]: −0.654; Tnfaip8 logFC [8]: 0.4; Traf1 logFC [8]: −1.485; Trib1 logFC [8]: −0.7668; Zbtb10 logFC [8]: −0.2586; Hras logFC [9]: 0.06802; Map3k1 logFC [9]: −0.7203; Nfkb1 logFC [9]: −0.616; Nfkbia logFC [9]: −0.7041; Pdgfb logFC [9]: −0.8375; Pdgfra logFC [9]: −0.658; Pik3cg logFC [9]: −1.096; Pik3r1 logFC [9]: −0.4284; Pla2g4a logFC [9]: −0.8381; Tiam1 logFC [9]: −0.9494; Arid4a logFC [10]: −0.196; Atrx logFC [10]: −0.2188; Bcar1 logFC [10]: 0.346; Ccdc88a logFC [10]: −0.6374; Ccnd1 logFC [10]: 0.644; Cep192 logFC [10]: −0.4173; Cntrl logFC [10]: −0.3963; Dmd logFC [10]: −0.3485; Epb41l2 logFC [10]: −0.6149; Fgd6 logFC [10]: −0.3419; Flna logFC [10]: −0.7842; Itsn1 logFC [10]: −0.2752; Kmt5a logFC [10]: 0.2873; Meis1 logFC [10]: −0.3593; Myh9 logFC [10]: −0.4543; Myh10 logFC [10]: −0.1801; Myo1e logFC [10]: −0.292; Nin logFC [10]: −0.4236; Ophn1 logFC [10]: −0.7587
